± gives the expanded uncertainty stated by the source.
Assay: xn = mol fraction of the nth substance listed
Conditions: 100 kPa, Liquid; for viscosity: Cone and plate viscometry; for mass density: Vibrating tube method

CCCCCCCC[P+](CC)(CC)CC.O=[N+]([O-])c1cn[n-]c1 [triethyloctylphosphonium 4-nitropyrazolide] + CCCCCCn1cc[n+](C)c1C.O=S(=O)([N-]S(=O)(=O)C(F)(F)F)C(F)(F)F
Conditions | mass density [kg/m3] | viscosity [mPa·s]
278.15 K, x1 = 0.124 | – | 602 ± 78
278.15 K, x1 = 0.25 | – | 771 ± 100
278.15 K, x1 = 0.401 | – | 1011 ± 130
278.15 K, x1 = 0.5 | – | 1156 ± 160
278.15 K, x1 = 0.6 | – | 1244 ± 170
278.15 K, x1 = 0.751 | – | 1382 ± 190
278.15 K, x1 = 0.9 | – | 1386 ± 190
283.15 K, x1 = 0.124 | 1331.5 ± 12 | 409 ± 52
283.15 K, x1 = 0.25 | 1290 ± 12 | 510 ± 66
283.15 K, x1 = 0.401 | – | 658 ± 86
283.15 K, x1 = 0.5 | 1206.7 ± 12 | 742 ± 97
283.15 K, x1 = 0.6 | – | 795 ± 100
283.15 K, x1 = 0.751 | 1123.8 ± 12 | 883 ± 120
283.15 K, x1 = 0.9 | 1074.2 ± 12 | 890 ± 120
283.15 K, x1 = 1 | 1040.7 ± 12 | –
288.15 K, x1 = 0.124 | 1327.1 ± 12 | 283 ± 35
288.15 K, x1 = 0.25 | 1285.9 ± 12 | 348 ± 44
288.15 K, x1 = 0.401 | – | 442 ± 56
288.15 K, x1 = 0.5 | 1203 ± 12 | 491 ± 63
288.15 K, x1 = 0.6 | – | 524 ± 67
288.15 K, x1 = 0.751 | 1120.4 ± 12 | 580 ± 75
288.15 K, x1 = 0.9 | 1071 ± 12 | 589 ± 76
288.15 K, x1 = 1 | 1037.7 ± 12 | –
293.15 K, x1 = 0.124 | 1322.8 ± 12 | 204 ± 25
293.15 K, x1 = 0.25 | 1281.8 ± 12 | 246 ± 31
293.15 K, x1 = 0.401 | – | 307 ± 39
293.15 K, x1 = 0.5 | 1199.2 ± 12 | 338 ± 43
293.15 K, x1 = 0.6 | – | 359 ± 45
293.15 K, x1 = 0.751 | 1117 ± 12 | 396 ± 50
293.15 K, x1 = 0.9 | 1067.8 ± 12 | 404 ± 51
293.15 K, x1 = 1 | 1034.6 ± 12 | –
295.15 K, x1 = 0.124 | 1321 ± 12 | –
295.15 K, x1 = 0.25 | 1280.1 ± 12 | –
295.15 K, x1 = 0.5 | 1197.7 ± 12 | –
295.15 K, x1 = 0.751 | 1115.6 ± 12 | –
295.15 K, x1 = 0.9 | 1066.5 ± 12 | –
295.15 K, x1 = 1 | 1033.4 ± 12 | –
298.15 K, x1 = 0.124 | 1318.5 ± 12 | 151 ± 18
298.15 K, x1 = 0.25 | 1277.6 ± 12 | 179 ± 22
298.15 K, x1 = 0.401 | – | 220 ± 27
298.15 K, x1 = 0.5 | 1195.5 ± 12 | 241 ± 30
298.15 K, x1 = 0.6 | – | 254 ± 32
298.15 K, x1 = 0.751 | 1113.6 ± 12 | 279 ± 35
298.15 K, x1 = 0.9 | 1064.6 ± 12 | 285 ± 36
298.15 K, x1 = 1 | 1031.5 ± 12 | –
303.15 K, x1 = 0.124 | 1314.3 ± 12 | 115 ± 14
303.15 K, x1 = 0.25 | 1273.7 ± 12 | 135 ± 16
303.15 K, x1 = 0.401 | – | 163 ± 20
303.15 K, x1 = 0.5 | 1191.8 ± 12 | 177 ± 22
303.15 K, x1 = 0.6 | – | 185 ± 23
303.15 K, x1 = 0.751 | 1110.2 ± 12 | 203 ± 25
303.15 K, x1 = 0.9 | 1061.4 ± 12 | 208 ± 26
303.15 K, x1 = 1 | 1028.5 ± 12 | –
308.15 K, x1 = 0.124 | 1310.1 ± 12 | 90 ± 11
308.15 K, x1 = 0.25 | 1269.7 ± 12 | 104 ± 13
308.15 K, x1 = 0.401 | – | 124 ± 15
308.15 K, x1 = 0.5 | 1188.1 ± 12 | 134 ± 16
308.15 K, x1 = 0.6 | – | 139 ± 17
308.15 K, x1 = 0.751 | 1106.9 ± 12 | 152 ± 19
308.15 K, x1 = 0.9 | 1058.3 ± 12 | 156 ± 19
308.15 K, x1 = 1 | 1025.5 ± 12 | –
313.15 K, x1 = 0.124 | 1306 ± 12 | 72 ± 9
313.15 K, x1 = 0.25 | 1265.7 ± 12 | 82 ± 10
313.15 K, x1 = 0.401 | – | 97 ± 12
313.15 K, x1 = 0.5 | 1184.5 ± 12 | 103 ± 13
313.15 K, x1 = 0.6 | – | 106 ± 13
313.15 K, x1 = 0.751 | 1103.7 ± 12 | 117 ± 14
313.15 K, x1 = 0.9 | 1055.3 ± 12 | 119 ± 14
313.15 K, x1 = 1 | 1022.6 ± 12 | –
318.15 K, x1 = 0.124 | 1301.8 ± 12 | 58 ± 7
318.15 K, x1 = 0.25 | 1261.7 ± 12 | 65 ± 8
318.15 K, x1 = 0.401 | – | 77 ± 9
318.15 K, x1 = 0.5 | 1180.9 ± 12 | 82 ± 10
318.15 K, x1 = 0.6 | – | 83 ± 10
318.15 K, x1 = 0.751 | 1100.4 ± 12 | 91 ± 11
318.15 K, x1 = 0.9 | 1052.2 ± 12 | 94 ± 11
318.15 K, x1 = 1 | 1019.6 ± 12 | –
323.15 K, x1 = 0.124 | 1297.6 ± 12 | –
323.15 K, x1 = 0.25 | 1257.7 ± 12 | 53 ± 6
323.15 K, x1 = 0.401 | – | 63 ± 8
323.15 K, x1 = 0.5 | 1177.3 ± 12 | 66 ± 8
323.15 K, x1 = 0.6 | – | 67 ± 8
323.15 K, x1 = 0.751 | 1097.1 ± 12 | 73 ± 9
323.15 K, x1 = 0.9 | 1049.1 ± 12 | 75 ± 9
323.15 K, x1 = 1 | 1016.7 ± 12 | –
328.15 K, x1 = 0.124 | 1293.5 ± 12 | –
328.15 K, x1 = 0.25 | 1253.8 ± 12 | –
328.15 K, x1 = 0.5 | 1173.7 ± 12 | –
328.15 K, x1 = 0.751 | 1093.9 ± 12 | –
328.15 K, x1 = 0.9 | 1046.1 ± 12 | –
328.15 K, x1 = 1 | 1013.8 ± 12 | –
333.15 K, x1 = 0.124 | 1289.3 ± 12 | –
333.15 K, x1 = 0.25 | 1249.8 ± 12 | –
333.15 K, x1 = 0.5 | 1170.2 ± 12 | –
333.15 K, x1 = 0.751 | 1090.6 ± 12 | –
333.15 K, x1 = 0.9 | 1043 ± 12 | –
333.15 K, x1 = 1 | 1010.8 ± 12 | –
338.15 K, x1 = 0.124 | 1285.1 ± 12 | –
338.15 K, x1 = 0.25 | 1245.8 ± 12 | –
338.15 K, x1 = 0.5 | 1166.6 ± 12 | –
338.15 K, x1 = 0.751 | 1087.4 ± 12 | –
338.15 K, x1 = 0.9 | 1040 ± 12 | –
338.15 K, x1 = 1 | 1007.9 ± 12 | –
343.15 K, x1 = 0.124 | 1281 ± 12 | –
343.15 K, x1 = 0.25 | 1241.9 ± 12 | –
343.15 K, x1 = 0.5 | 1163 ± 12 | –
343.15 K, x1 = 0.751 | 1084.1 ± 12 | –
343.15 K, x1 = 0.9 | 1036.9 ± 12 | –
343.15 K, x1 = 1 | 1005 ± 12 | –
348.15 K, x1 = 0.124 | 1276.9 ± 12 | –
348.15 K, x1 = 0.25 | 1237.9 ± 12 | –
348.15 K, x1 = 0.5 | 1159.5 ± 12 | –
348.15 K, x1 = 0.751 | 1080.9 ± 12 | –
348.15 K, x1 = 0.9 | 1033.9 ± 12 | –
348.15 K, x1 = 1 | 1002.1 ± 12 | –
353.15 K, x1 = 0.124 | 1272.7 ± 12 | –
353.15 K, x1 = 0.25 | 1234 ± 12 | –
353.15 K, x1 = 0.5 | 1155.9 ± 12 | –
353.15 K, x1 = 0.751 | 1077.7 ± 12 | –
353.15 K, x1 = 0.9 | 1030.9 ± 12 | –
353.15 K, x1 = 1 | 999.2 ± 12 | –

Source: the NIST ThermoML archive (doi:10.1021/acs.jced.7b00221)
